This is an account of results in patent US20180362961A1, “METHODS AND COMPOSITIONS FOR ENHANCED NUCLEASE-MEDIATED GENOME MODIFICATION AND REDUCED OFF-TARGET SITE EFFECTS” (Danisco US Inc., priority 2015, published 2018).

Like-named read-outs stand apart in the source and are kept apart here.

In experiment [1] the test system is Yarrowia lipolytica cells. From the text:
In this example Yarrowia lipolytica cells treated with the DNA Ligase IV inhibitor, Scr7, were transformed with targeting plasmids in the presence and absence of editing templates. Homology directed repair (HDR) occurs between an editing template and the target DNA when there are two regions of homology flanking a region of interest (FIG. 3). A DNA double-stranded break at a target site within the region of interest can initiate HDR replacing the region of interest (FIG. 3, white box) with a modified region of interest carried on the editing template. In this example the modified region of interest lacks the entire open-reading frame of the CAN1 gene.
Cells were phenotypically scored for Canavanine resistance to determine overall targeting efficiency (NHEJ+HDR). Colony PCR of the CAN1 locus (SEQ ID NO: 35) was performed to differentiate repair of the Cas9/gRNA generated double-strand break by HDR or NHEJ.
Three different treatment conditions were tested: Untreated, Scr7-A, and Scr7-B (A schematic of the three treatments is shown in FIG. 4). For all three conditions a uracil auxotrophic strain of Yarrowia lipolytica ATCC20362 was used For the untreated condition the strain was grown for 24 hours on YPD medium plates (Teknova) at 30° C. (also referred to as a pretreatment). 1 loop of cells were resuspended in transformation buffer (35% polyethylene glycol average molecular weight of 3550, 100 mM lithium acetate, 100 mM dithiothreitol, 10 mM Tris, 1 mM EDTA pH 6.0). 100 μl of cell suspension was mixed with 100 ng of either pRF291 (SEQ ID NO: 18) (Cas9 expression, no gRNA) or pRF303 (SEQ ID NO: 24) (Cas9 expression, Can1-1 gRNA expression) with either no editing template or 1 μg linear editing template (SEQ ID NO: 34). Transformation mixtures were incubated at 39° C. for 1 hour at 800 RPM. Transformation mixtures were plated on complete minimal medium plates lacking uracil (Teknova) to select for cells transformed with plasmid DNA. Plates were incubated at 30° C. for 48 hours.
For treatment Scr7-A the strain was grown for 24 hours on YPD medium plates (Teknova) at 30° C. (also referred to as a pretreatment). 1 loop of cells were resuspended in modified transformation buffer (35% polyethylene glycol average molecular weight of 3550, 100 mM lithium acetate, 100 mM dithiothreitol, 10 mM Tris, 1 mM EDTA pH 6.0, 5 μM Scr7). 100 μl of cell suspension was mixed with 100 ng of either pRF291 (SEQ ID NO:18) (Cas9 expression, no gRNA) or pRF303 (SEQ ID NO: 24) (Cas9 expression, Can1-1 gRNA expression) with either no editing template or 1 μg linear editing template (SEQ ID NO: 31). Transformation mixtures were incubated at 39° C. for 1 hour at 800 RPM. Transformation mixtures were plated on complete minimal medium plates lacking uracil (Teknova) to select for cells transformed with plasmid DNA. Plates were incubated at 30° C. for 48 hours.
For treatment Scr7-B the strain was grown for 24 hours on YPD medium plates containing 5 μM Scr7 at 30° C. (also referred to as a pretreatment). 1 loop of cells were resuspended in modified transformation buffer (35% polyethylene glycol average molecular weight of 3550, 100 mM lithium acetate, 100 mM dithiothreitol, 10 mM Tris, 1 mM EDTA pH 6.0, 5 μM Scr7). 100 μl of cell suspension was mixed with 100 ng of either pRF291 (SEQ ID NO:18) (Cas9 expression, no gRNA) or pRF303 (SEQ ID NO: 24) (Cas9 expression, Can1-1 gRNA expression) with either no editing template or 1 μg linear editing template (SEQ ID NO: 31). Transformation mixtures were incubated at 39° C. for 1 hour at 800 RPM. Transformation mixtures were plated on complete minimal medium containing 5 μM Scr-7 plates lacking uracil. Plates were incubated at 30° C. for 48 hours.
For each condition, 24 colonies from each transformation were streak purified on complete minimal plates lacking uracil (Teknova) for single colonies.

In experiment [2] the test system is Yarrowia lipolytica cells. The experiment can be described thus: Colony PCR of the CAN1 locus to determine frequency of HDR at Cas9/gRNA double-strand breaks. It counts as cell-based. To be noted: for Fold HDR over untreated (±SEM) / HDR Frequency (±SEM): pRF303, Can1-1 target site, with editing template. The procedure: To determine the frequency of HDR at the targeted double-strand breaks generated by Cas9/gRNA at the Can1-1 target site Yarrowia colony PCR of the CAN1 locus (SEQ ID NO: 40) (primers used, […], forward (SEQ ID NO: 38) and […], reverse (SEQ ID NO: 39)) was performed using standard techniques. If the CAN1 locus was unmodified or contained a small indel generated by NHEJ the colony PCR result would give a band similar in size to the WT CAN1 locus at an apparent size of 2125 bp (SEQ ID NO: 40). If the Cas9/gRNA generated double-strand break had been repaired using the editing templates the PCR would generate a smaller CAN1 locus product 392 bp indicating the deletion of the entire open-reading frame (SEQ ID NO: 41). Colony PCR was performed on all canavanine resistant colonies from cells transformed with pRF303 in the presence of editing template and the fraction of cells where the Cas9/gRNA generated double-strand break was repaired via HDR with the editing template and various Scr-7 treatment schemes was determined (Table 1).

In experiment [3] the test system is Yarrowia lipolytica cells. The experiment can be described thus: Relative copy number analysis (qPCR) of CAN1 fragment for off-target insertion of editing template by NHEJ. In kind it is cell-based. To be noted: for Fraction of cells with single copy of CAN1 / Fraction of cells with ≥2 copies of CAN1: HDR-positive colonies. As for the experimental part: An additional complication of repair of Cas9/gRNA generated double-stranded breaks using editing template is the possibility that the editing template can be incorporated by the NHEJ pathway at other regions of DNA damage. In order to determine the frequency at which this occurs in the cells treated with editing templates under the three different Scr-7 treatments, relative copy number analysis was performed looking for a 62 bp fragment of the CAN1 locus present in both the chromosome and the editing template (SEQ ID NO: 42). Relative copy number analysis was performed on colonies from cells treated with pRF303 (SEQ ID NO: 24) and linear editing template (SEQ ID NO: 34) under all three treatment conditions. If the editing template is only incorporated during the HDR of the Cas9/gRNA double strand break at the CAN1 locus (SEQ ID NO: 35) the cell will only carry a single copy of the copy number analysis fragment (SEQ ID NO: 42). However, if the cell incorporates additional copies of the editing template elsewhere in the genome due to the activity of the NHEJ pathway additional copies of the fragment will be present and the cell will return a higher relative copy number. Briefly, genomic DNA was isolated using standard techniques from colonies that scored positive for HDR of the Can1-1 Cas9/gRNA targeted double strand break. Genomic DNA was normalized to 5 ng/μl. 1 μl of the normalized genomic DNA from each colony was added to three replicate qPCR reactions for both the CAN1 locus (SEQ ID NO: 42), (primers used, AGCGCCAAACCCAAAGC, forward (SEQ ID NO: 43), […], reverse (SEQ ID NO: 44), and 6FAM-[…]-TAMRA, probe (SEQ ID NO: 45)) or as a control the TEF1 locus (SEQ ID NO: 56) (primers used, […], forward (SEQ ID NO: 47), […], reverse (SEQ ID NO: 48) and 6FAM-[…]-TAMRA, probe (SEQ ID NO: 49)). Reactions were run in TaqMAN universal PCR master mix (ABI life technologies) on a life technologies Quant Studio 7 instrument using the following cycling conditions 95° C. for 10 minutes followed by 40 cycles of 95° C. for 15 seconds, 60° C. for 1 minute. 6FAM fluorescence from the probes was monitored through the 40 cycles of the PCR and Ct values were collected. Relative gene copy number was determined by the ΔΔCt method (User Bulletin #2 ABI PRISM 7700 Sequence Detection System (Updated 2001)). Briefly, TEF1 Ct values were used to normalize the data for differences in cell copy number between genomic DNA samples. Genomic DNA from a wildtype strain was used as a reference for the relative quantification for the CAN1 copy number fragment (SEQ ID NO: 42). Software on the Quant studio 7 calculated relative gene copy number and corresponding error for each sample relative to the wildtype strain. The colonies were separated into two bins, those with a single relative copy of the CAN1 analysis fragment (SEQ ID NO: 42) and those with 2 or more relative copies (SEQ ID NO: 42). […] The second bin represents cells where the editing template was used to repair the Cas9/gRNA generated double-strand break at the Can1-1 target site (SEQ ID NO: 22) and was integrated at least once somewhere else in the genome via a NHEJ mechanism.
(Quantitative PCR measures a nucleic acid by following its amplification.)

The mark [4] stands for this setting: Scr7 treatment A, pRF303 and linear editing template.
Where [5] appears, read: Scr7 treatment B, pRF303 and linear editing template.

For `O=c1[nH]c(=S)[nH]c(N=Cc2ccccc2)c1N=Cc1ccccc1` [Scr7], the “Canavanine resistance frequency (±Std. Dev)” value is given as 0 ± 0 in experiment [1] (Scr7 treatment A (5 μM Scr7 in transformation buffer), pRF291 (Cas9, no gRNA), no editing template); 0 ± 0 in experiment [1] (Scr7 treatment A, pRF291 (Cas9, no gRNA), with editing template); 62.2 ± 6.7 in experiment [1] (Scr7 treatment A, pRF303 (Can1-1 gRNA), no editing template); 64.2 ± 6.4 in experiment [1] (Scr7 treatment A, pRF303 (Can1-1 gRNA), with editing template); 0 ± 0 in experiment [1] (Scr7 treatment B (5 μM Scr7 in 24 h pretreatment, transformation buffer and selection plates), pRF291 (Cas9, no gRNA), no editing template); 0 ± 0 in experiment [1] (Scr7 treatment B, pRF291 (Cas9, no gRNA), with editing template). Moreover, the “Canavanine resistance frequency (±Std. Dev)” value in experiment [1] (Scr7 treatment B, pRF303 (Can1-1 gRNA), no editing template) is recorded as 68.7 ± 6.3; in experiment [1] (Scr7 treatment B, pRF303 (Can1-1 gRNA), with editing template), 64.6 ± 20.3. Also, the Canavanine resistant cells entry in experiment [1] (pRF291 (Cas9, no functional gRNA), regardless of Scr-7 treatment scheme) is on record as “did not give rise to Canavanine resistance cells”. Moreover, the “Fold HDR over untreated (±SEM)” value is reported as 0.9 ± 0.1 fold in experiment [2] (Scr7 treatment A); 1.5 ± 0.3 fold in experiment [2] (Scr7 treatment B); 1.5 fold in experiment [2] (Scr7 treatment B, listed as Scr-7). The “HDR Frequency (±SEM)” value is given as 9.7 ± 1.4 in experiment [2] (Scr7 treatment A) and 16.7 ± 4.8 in experiment [2] (Scr7 treatment B). Also, the “Fraction of breaks repaired via HDR, as % of the frequency of untreated or short Scr-7 treatment A” value in experiment [2] (extended Scr-7 treatment B, linear editing template) is 150%. Further, the results for the “Fraction of cells with single copy of CAN1” value in experiment [3] (setting [4]) and in experiment [3] (setting [5]) were 0.38 and 1, respectively. Besides, the entries for the “Fraction of cells with ≥2 copies of CAN1” value in experiment [3] (setting [4]) and in experiment [3] (setting [5]) were 0.63 and 0, respectively. The “Colonies with a single copy of the CAN1 editing template” value in experiment [3] (Scr-7 treatment A, pRF303 and linear editing template) is “approximately 40%”. Moreover, the “Colonies with only a single copy of the CAN1 locus” value in experiment [3] (Scr-7 treatment B, pRF303 and editing template) was 100%.
